How the values were obtained:
SF-295 = assay: NCI panel growth inhibition, sulforhodamine B; format: cell-based, human; conditions: drug for last 48 h of 72 h
From the text: (§1) Comparison of anticancer activities of the 1,3-substituted adamantane derivatives, 1,3-bis(4-aminophenyl)adamantane (1,3-DPANH2), 1,3-bis(4-(4-aminophenoxy)phenyl)adamantane (1,3-DPAONH2), 1,3-bis(4-(4-amino-3-hydroxy)phenyl)adamantane (1,3-DPA/OH/NH2) and 1,3-bis(4-(4-amino-2-trifluoromethylphenoxy)phenyl)adamantane (1,3-DPA/CF3/NH2) as shown in FIG. 1 were synthesized in the present invention. Those compounds were submitted to the National Cancer Institute for anticancer assay in culture against a standard panel of cell lines. […] To further confirm that the different substituents (CF3 and OH) on the phenyl ring of 1,3-DPAONH2 affect the growth inhibition of cancer cells. […] The transformations of 1,3-DPAONH2 to 1,3-DPA/OH/NH2 led to a remarked enhancement of anticancer activity toward all the tested cancer lines. The role of the OH group at the ortho position of the NH2 on growth inhibition is remarkable. In addition, one compound (1,3-DPA/OH/NH2) was confirmed to have an IC50 of <1 μM against one of the cells (BT-549 breast carcinoma). Comparison of anticancer activities of 1,3-substituted diaminophenyladamantane derivatives, the following order of potency against the tested cancer lines was observed: 1,3-DPA/OH/NH2>1,3-DPAONH2>1,3-DPANH2>1,3-DPA/CF3/NH2.

BT-549 = assay: NCI panel growth inhibition, sulforhodamine B; format: cell-based, human; conditions: drug for last 48 h of 72 h
From the text: as §1

NCI/ADR-RES = assay: NCI panel growth inhibition, sulforhodamine B; format: cell-based, human; conditions: Breast cancer, drug for last 48 h of 72 h
From the text: as §1

UACC-257 = assay: NCI panel growth inhibition, sulforhodamine B; format: cell-based; conditions: Homo sapiens; UACC-257, Melanoma; drug for last 48 h of 72 h
From the text: as §1

K-562 = assay: NCI panel growth inhibition, sulforhodamine B; format: cell-based; conditions: Homo sapiens, K562; K-562, Leukemia; drug for last 48 h of 72 h
From the text: as §1

COLO 205 = assay: NCI panel growth inhibition, sulforhodamine B; format: cell-based; conditions: Homo sapiens; COLO 205, Colon cancer; drug for last 48 h of 72 h
From the text: as §1

T-47D = assay: NCI panel growth inhibition, sulforhodamine B; format: cell-based; conditions: Homo sapiens, T47D, Breast cancer, drug for last 48 h of 72 h
From the text: as §1

OVCAR-3 = assay: NCI panel growth inhibition, sulforhodamine B; format: cell-based; conditions: Homo sapiens; OVCAR-3, Ovarian cancer; drug for last 48 h of 72 h
From the text: as §1

SN12C = assay: NCI panel growth inhibition, sulforhodamine B; format: cell-based; conditions: Homo sapiens, Renal cancer, drug for last 48 h of 72 h
From the text: as §1

MDA-MB-231 = assay: NCI panel growth inhibition, sulforhodamine B; format: cell-based; conditions: Homo sapiens; MDA-MB-231, Breast cancer; drug for last 48 h of 72 h
From the text: as §1

HT29 = assay: NCI panel growth inhibition, sulforhodamine B; format: cell-based; conditions: Homo sapiens, HT-29; HT29, Colon cancer; drug for last 48 h of 72 h
From the text: as §1

MALME-3M = assay: NCI panel growth inhibition, sulforhodamine B; format: cell-based; conditions: Homo sapiens, Melanoma, drug for last 48 h of 72 h
From the text: as §1

HS 578T = assay: NCI panel growth inhibition, sulforhodamine B; format: cell-based; conditions: Homo sapiens, Breast cancer, drug for last 48 h of 72 h
From the text: as §1

SK-MEL-2 = assay: NCI panel growth inhibition, sulforhodamine B; format: cell-based; conditions: Homo sapiens; SK-MEL-2, Melanoma; drug for last 48 h of 72 h
From the text: as §1

NCI-H522 = assay: NCI panel growth inhibition, sulforhodamine B; format: cell-based; conditions: Homo sapiens; NCI-H522, NSCLC; drug for last 48 h of 72 h
From the text: as §1

OVCAR-8 = assay: NCI panel growth inhibition, sulforhodamine B; format: cell-based; conditions: Homo sapiens; OVCAR-8, Ovarian cancer; drug for last 48 h of 72 h
From the text: as §1

MOLT-4 = assay: NCI panel growth inhibition, sulforhodamine B; format: cell-based; conditions: Homo sapiens; MOLT-4, Leukemia; drug for last 48 h of 72 h
From the text: as §1

A498 = assay: NCI panel growth inhibition, sulforhodamine B; format: cell-based; conditions: Homo sapiens; A498, Renal cancer; drug for last 48 h of 72 h
From the text: as §1

786-0 = assay: NCI panel growth inhibition, sulforhodamine B; format: cell-based; conditions: Homo sapiens; 786-0, Renal cancer; drug for last 48 h of 72 h
From the text: as §1

RXF-393 = assay: NCI panel growth inhibition, sulforhodamine B; format: cell-based; conditions: Homo sapiens; RXF-393, Renal cancer; drug for last 48 h of 72 h
From the text: as §1

HCT-116 = assay: NCI panel growth inhibition, sulforhodamine B; format: cell-based; conditions: Homo sapiens; HCT-116, Colon cancer; drug for last 48 h of 72 h
From the text: as §1

NCI-H322M = assay: NCI panel growth inhibition, sulforhodamine B; format: cell-based; conditions: Homo sapiens, NSCLC, drug for last 48 h of 72 h
From the text: as §1

[1] = test system: NCI's human cancer cell lines; assay: NCI panel growth inhibition, whole panel summary; format: cell-based; conditions: in vitro
From the text: as §1, with “1,3-DPA/OH/NH2>1,3-DPAONH2>1,3-DPANH2>1,3-DPA/CF3/NH2. […]” for “1,3-DPA/OH/NH2>1,3-DPAONH2>1,3-DPANH2>1,3-DPA/CF3/NH2.”

RPMI-8226 = assay: NCI panel growth inhibition, sulforhodamine B; format: cell-based; conditions: Homo sapiens; RPMI-8226, Leukemia; drug for last 48 h of 72 h
From the text: as §1

[2] = Homo sapiens, SF-295, SF-295, CNS cancer
[3] = Homo sapiens, BT-549, BT-549, Breast cancer

Compound	IC50 (SF-295; [2])	IC50 (BT-549; [3])	IC50 (NCI/ADR-RES; Homo sapiens)	IC50 (UACC-257)	IC50 (K-562)	IC50 (COLO 205)	IC50 (T-47D)	IC50 (OVCAR-3)	IC50 (SN12C)	IC50 (MDA-MB-231)	IC50 (HT29)	IC50 (MALME-3M)	IC50 (HS 578T)	IC50 (SK-MEL-2)	IC50 (NCI-H522)	IC50 (OVCAR-8)	IC50 (MOLT-4)	IC50 (A498)	IC50 (786-0)	IC50 (HCT-116)	further results
Nc1ccc(Oc2ccc(C34CC5CC(C3)CC(c3ccc(Oc6ccc(N)cc6C(F)(F)F)cc3)(C5)C4)cc2)c(C(F)(F)F)c1 [1,3-DPA/CF3/NH2, 1,3-bis-(4-(4-amino-2-trifluoromethylphenoxy)phenyl)adamantane]	25.3 µM	21.9 µM	21.7 µM	18.7 µM	43.9 µM	19.1 µM	15.1 µM	17.9 µM	31.1 µM	15.2 µM	17.2 µM	22.2 µM	17.1 µM	14.1 µM	14.4 µM	16 µM	35.7 µM	18.3 µM	31.5 µM	24.9 µM	IC50 (RXF-393): 11.1 µM; IC50 (NCI-H322M): 20.1 µM
Nc1ccc(Oc2ccc(C34CC5CC(C3)CC(c3ccc(Oc6ccc(N)c(O)c6)cc3)(C5)C4)cc2)cc1O [1,3-DPA/OH/NH2, 1,3-bis-(4-(4-amino-3-hydroxyphenoxy)phenyl)adamantane]	2.29 µM	< 1 µM	2.32 µM	2.23 µM	3.46 µM	1.84 µM	1.66 µM	1.85 µM	1.74 µM	1.62 µM		1.93 µM	1.63 µM	2.45 µM	1.4 µM	2.03 µM	2.42 µM	4.54 µM	2.83 µM	1.39 µM	IC50 (BT-549; BT-549, Breast cancer): 0.565 µM; growth inhibitory activity against the tested cancer cell lines (in words) [1]: strong growth inhibitory activities; IC50 (RPMI-8226): 2.54 µM; IC50 (RXF-393): 1.61 µM; IC50 (NCI-H322M): 1.26 µM
Nc1ccc(C23CC4CC(C2)CC(c2ccc(N)cc2)(C4)C3)cc1 [1,3-DPANH2, 1,3-bis(4-aminophenyl)adamantane]	16.4 µM	42.8 µM	56.8 µM	75.5 µM	14.6 µM	2.3 µM		48.5 µM	25.1 µM	19.6 µM				35.9 µM		85.1 µM	11.3 µM	15.7 µM	38.5 µM	44.3 µM	IC50 (RPMI-8226): 10.7 µM
Nc1ccc(Oc2ccc(C34CC5CC(C3)CC(c3ccc(Oc6ccc(N)cc6)cc3)(C5)C4)cc2)cc1 [1,3-DPAONH2, 1,3-bis(4-(4-aminophenoxy)phenyl)adamantane]	6.91 µM	4.02 µM	8.59 µM	12.5 µM	7.08 µM	13.3 µM	5.67 µM	3.08 µM	5.76 µM	16.9 µM	7.12 µM	14.6 µM	11.7 µM	15.7 µM	13.3 µM	4.82 µM	3.81 µM	18 µM	8.09 µM	5.65 µM	IC50 (RPMI-8226): 4.14 µM; IC50 (RXF-393): 7.78 µM; IC50 (NCI-H322M): 8.84 µM
Nc1ccc(C2(c3ccc(N)cc3)C3CC4CC(C3)CC2C4)cc1 [2,2-DPANH2, 2,2-bis(4-aminophenyl)adamantane]	< 0.1 µM	11.2 µM	< 0.1 µM	19.2 µM	10.3 µM		14.4 µM	10.9 µM	18.6 µM	17.4 µM	0.1 µM			18.5 µM	15.6 µM	7.73 µM	4.96 µM	21 µM		20.9 µM	IC50 (SF-295; SF-295, CNS cancer): 0.059 µM; IC50 (NCI/ADR-RES): 0.079 µM; IC50 (RXF-393): 2.74 µM
Nc1ccc(Oc2ccc(C3(c4ccc(Oc5ccc(N)cc5)cc4)C4CC5CC(C4)CC3C5)cc2)cc1 [2,2-DPAONH2, 2,2-bis(4-(4-aminophenoxy)phenyl)adamantane]	6.76 µM	4.28 µM	15.8 µM	5.76 µM	3.89 µM	2.71 µM		2.58 µM	3.65 µM	17 µM	2.96 µM	13.6 µM	4.91 µM	16.8 µM	4.28 µM	5.82 µM	4.27 µM	2.91 µM	3.07 µM	2.71 µM	IC50 (RPMI-8226): 3.01 µM; IC50 (NCI-H322M): 0.184 µM
Nc1ccc(Oc2ccc(C3(c4ccc(Oc5ccc(N)c(O)c5)cc4)C4CC5CC(C4)CC3C5)cc2)cc1O [DPA, 2,2-bis(4-(4-amino-3-hydroxyphenoxy)phenyl)adamantane]	2.57 µM	2.05 µM	2.33 µM	2.32 µM	1.98 µM	0.484 µM	4.13 µM	1.56 µM	1.83 µM	1.82 µM	1.81 µM	2.02 µM	2.35 µM	1.69 µM	1.6 µM	1.68 µM	1.45 µM	4.67 µM	1.88 µM	1.58 µM	growth inhibitory activity against the tested cancer cell lines (in words) [1]: strong growth inhibitory activities; IC50 (RPMI-8226): 1.92 µM; IC50 (RXF-393): 1.82 µM; IC50 (NCI-H322M): 1.41 µM

— US7365231B2, “Compound with antitumor activity and preparation method therefor” (National Taiwan University of Science & Technology, priority 2005, dated 2008)
